We go through two molecules from PMC9329436, “Optimization of the 4-anilinoquin(az)oline scaffold as epidermal growth factor receptor (EGFR) inhibitors for chordoma utilizing a toxicology profiling assay platform” (Scientific Reports, 2022).

Where two headings read alike, the source gives them in different places.

Common to all, as to format: biochemical
The target in experiment [1] is T1, 320 wild-type protein kinases (Homo sapiens, UniProt P25098).
T1 sequence (P25098 1-689): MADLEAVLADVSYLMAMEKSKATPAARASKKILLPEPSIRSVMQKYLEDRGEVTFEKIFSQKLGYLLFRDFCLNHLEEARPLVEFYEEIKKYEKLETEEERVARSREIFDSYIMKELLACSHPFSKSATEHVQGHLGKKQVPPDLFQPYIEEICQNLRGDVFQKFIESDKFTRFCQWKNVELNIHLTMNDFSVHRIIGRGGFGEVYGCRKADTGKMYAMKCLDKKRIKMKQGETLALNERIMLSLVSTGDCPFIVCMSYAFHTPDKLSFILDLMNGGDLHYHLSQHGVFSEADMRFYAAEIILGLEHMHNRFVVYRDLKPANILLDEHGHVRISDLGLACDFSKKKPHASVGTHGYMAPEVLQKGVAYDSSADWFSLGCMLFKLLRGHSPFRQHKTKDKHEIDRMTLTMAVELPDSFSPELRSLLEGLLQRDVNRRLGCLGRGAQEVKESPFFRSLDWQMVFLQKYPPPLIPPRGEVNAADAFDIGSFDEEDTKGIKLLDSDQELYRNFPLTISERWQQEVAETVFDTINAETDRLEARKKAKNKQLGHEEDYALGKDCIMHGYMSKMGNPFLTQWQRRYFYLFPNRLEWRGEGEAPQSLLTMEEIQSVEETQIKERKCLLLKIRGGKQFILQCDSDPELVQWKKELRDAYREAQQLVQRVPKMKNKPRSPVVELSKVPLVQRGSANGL
The settings on record: singlicate. The text has this:
(§1) Table S4. Profiling of two compounds at two concentrations against 320 wild-type protein kinases; singlicate measurement; Residual activities (% of control).

For experiment [2], the target named is T2, 320 wild-type protein kinases (Homo sapiens, UniProt P51817).
T2 sequence (P51817 1-358): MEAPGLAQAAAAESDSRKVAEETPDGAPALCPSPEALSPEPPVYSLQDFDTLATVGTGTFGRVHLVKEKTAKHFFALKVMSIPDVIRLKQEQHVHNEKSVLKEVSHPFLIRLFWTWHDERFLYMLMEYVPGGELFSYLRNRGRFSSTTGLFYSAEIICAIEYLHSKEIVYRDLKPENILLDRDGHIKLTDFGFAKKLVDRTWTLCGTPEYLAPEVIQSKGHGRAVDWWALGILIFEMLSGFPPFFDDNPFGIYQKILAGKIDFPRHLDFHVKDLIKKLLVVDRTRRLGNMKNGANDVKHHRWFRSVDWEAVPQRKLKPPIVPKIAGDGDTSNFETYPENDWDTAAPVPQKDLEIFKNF
The settings on record: kinase PRKX, singlicate.
From the text: as §1

Experiment [3] has as its target 320 wild-type protein kinases (Homo sapiens, UniProt Q14680). The conditions noted are these: MELK, singlicate.
From the text: as §1

In experiment [4] the target is 320 wild-type protein kinases (Homo sapiens, UniProt Q5VT25). The conditions noted are these: CDC42BPA, singlicate.
Sequence of 320 wild-type protein kinases (Homo sapiens, UniProt Q5VT25) (Q5VT25 whole entry): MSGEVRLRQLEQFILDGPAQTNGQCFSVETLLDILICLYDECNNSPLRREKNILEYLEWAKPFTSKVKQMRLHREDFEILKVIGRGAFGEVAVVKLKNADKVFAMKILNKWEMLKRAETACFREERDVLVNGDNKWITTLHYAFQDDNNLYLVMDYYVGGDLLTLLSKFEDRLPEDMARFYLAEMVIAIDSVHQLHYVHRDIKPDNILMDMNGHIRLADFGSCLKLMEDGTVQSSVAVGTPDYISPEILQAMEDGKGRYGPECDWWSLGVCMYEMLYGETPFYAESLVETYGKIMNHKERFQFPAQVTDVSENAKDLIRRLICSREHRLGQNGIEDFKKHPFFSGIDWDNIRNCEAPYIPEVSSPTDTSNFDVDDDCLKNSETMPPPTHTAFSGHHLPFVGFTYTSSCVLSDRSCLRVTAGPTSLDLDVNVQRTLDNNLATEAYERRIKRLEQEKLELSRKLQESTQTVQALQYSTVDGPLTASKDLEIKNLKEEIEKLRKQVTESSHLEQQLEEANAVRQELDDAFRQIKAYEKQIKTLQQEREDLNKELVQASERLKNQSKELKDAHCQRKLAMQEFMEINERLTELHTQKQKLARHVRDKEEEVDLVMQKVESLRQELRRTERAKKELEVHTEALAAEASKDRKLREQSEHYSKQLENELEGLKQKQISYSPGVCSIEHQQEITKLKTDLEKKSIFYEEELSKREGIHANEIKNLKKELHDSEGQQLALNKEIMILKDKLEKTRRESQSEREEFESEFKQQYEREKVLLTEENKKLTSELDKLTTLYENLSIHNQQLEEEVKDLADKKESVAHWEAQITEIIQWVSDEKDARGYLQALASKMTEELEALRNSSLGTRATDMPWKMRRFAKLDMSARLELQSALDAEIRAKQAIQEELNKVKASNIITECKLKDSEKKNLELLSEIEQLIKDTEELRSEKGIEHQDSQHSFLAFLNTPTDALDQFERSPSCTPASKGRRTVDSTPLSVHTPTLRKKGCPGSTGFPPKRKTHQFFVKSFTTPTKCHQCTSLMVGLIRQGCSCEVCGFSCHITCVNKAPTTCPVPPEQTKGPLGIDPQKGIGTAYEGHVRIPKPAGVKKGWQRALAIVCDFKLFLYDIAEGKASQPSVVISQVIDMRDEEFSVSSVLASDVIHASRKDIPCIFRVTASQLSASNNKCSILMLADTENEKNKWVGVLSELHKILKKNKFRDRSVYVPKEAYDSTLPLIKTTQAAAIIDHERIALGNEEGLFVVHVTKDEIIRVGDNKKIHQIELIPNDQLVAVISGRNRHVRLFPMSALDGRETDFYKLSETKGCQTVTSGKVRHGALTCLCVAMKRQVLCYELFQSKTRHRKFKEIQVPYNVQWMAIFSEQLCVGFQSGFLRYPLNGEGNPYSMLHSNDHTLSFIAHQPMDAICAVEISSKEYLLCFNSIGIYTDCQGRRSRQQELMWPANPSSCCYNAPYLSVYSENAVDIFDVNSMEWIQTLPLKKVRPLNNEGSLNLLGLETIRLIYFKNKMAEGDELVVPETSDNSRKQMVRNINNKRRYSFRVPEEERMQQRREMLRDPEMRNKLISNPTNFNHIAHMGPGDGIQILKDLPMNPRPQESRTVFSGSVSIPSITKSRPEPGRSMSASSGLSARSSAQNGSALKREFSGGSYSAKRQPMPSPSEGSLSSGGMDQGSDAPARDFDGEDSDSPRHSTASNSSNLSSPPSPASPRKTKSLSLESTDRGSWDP
From the text: as §1

For experiment [5], the target named is T3, 320 wild-type protein kinases (Homo sapiens, UniProt Q8NE63).
T3 sequence (Q8NE63 1-616): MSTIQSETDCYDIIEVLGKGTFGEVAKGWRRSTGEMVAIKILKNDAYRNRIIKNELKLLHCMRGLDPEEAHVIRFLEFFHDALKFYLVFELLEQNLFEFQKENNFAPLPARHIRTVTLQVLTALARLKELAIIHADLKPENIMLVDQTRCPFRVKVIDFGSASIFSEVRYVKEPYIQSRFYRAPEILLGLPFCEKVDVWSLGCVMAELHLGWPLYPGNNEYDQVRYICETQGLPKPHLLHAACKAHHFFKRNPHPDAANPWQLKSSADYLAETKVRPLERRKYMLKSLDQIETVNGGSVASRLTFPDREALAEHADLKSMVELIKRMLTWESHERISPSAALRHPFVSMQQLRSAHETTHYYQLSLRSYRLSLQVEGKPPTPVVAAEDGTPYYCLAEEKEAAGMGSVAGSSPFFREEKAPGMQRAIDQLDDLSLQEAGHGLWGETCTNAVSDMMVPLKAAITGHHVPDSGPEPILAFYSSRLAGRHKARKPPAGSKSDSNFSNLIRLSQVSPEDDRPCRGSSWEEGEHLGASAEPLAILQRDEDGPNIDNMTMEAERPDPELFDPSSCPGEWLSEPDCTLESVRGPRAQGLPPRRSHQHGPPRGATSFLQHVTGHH
The settings on record: singlicate.
From the text: as §1

Experiment [6] addresses T4, 320 wild-type protein kinases (Homo sapiens, UniProt Q8TDC3).
T4 sequence (Q8TDC3 1-778): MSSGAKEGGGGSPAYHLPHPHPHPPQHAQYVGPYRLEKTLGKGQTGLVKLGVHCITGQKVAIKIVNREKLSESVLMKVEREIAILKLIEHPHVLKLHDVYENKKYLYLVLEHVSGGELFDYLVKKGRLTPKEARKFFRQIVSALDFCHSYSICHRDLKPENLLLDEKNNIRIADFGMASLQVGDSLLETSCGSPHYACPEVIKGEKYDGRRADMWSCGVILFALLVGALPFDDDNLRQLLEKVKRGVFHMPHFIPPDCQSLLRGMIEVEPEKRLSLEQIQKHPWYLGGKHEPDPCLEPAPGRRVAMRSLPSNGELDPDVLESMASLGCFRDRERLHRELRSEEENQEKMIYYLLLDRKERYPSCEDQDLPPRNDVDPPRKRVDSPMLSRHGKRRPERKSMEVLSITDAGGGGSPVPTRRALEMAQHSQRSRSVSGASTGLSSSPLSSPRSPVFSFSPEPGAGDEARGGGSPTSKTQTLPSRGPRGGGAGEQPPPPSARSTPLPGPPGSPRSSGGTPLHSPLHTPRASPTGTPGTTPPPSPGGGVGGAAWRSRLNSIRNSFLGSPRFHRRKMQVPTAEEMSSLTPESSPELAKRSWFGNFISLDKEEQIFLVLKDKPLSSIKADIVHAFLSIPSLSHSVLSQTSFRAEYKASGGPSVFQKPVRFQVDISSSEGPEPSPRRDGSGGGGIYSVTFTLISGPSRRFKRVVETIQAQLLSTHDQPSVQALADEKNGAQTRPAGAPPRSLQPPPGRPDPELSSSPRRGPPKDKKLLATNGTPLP
The conditions noted are these: singlicate.
From the text: as §1

The target in experiment [7] is 320 wild-type protein kinases (Homo sapiens, UniProt Q9P1W9). The settings on record: singlicate.
Sequence of 320 wild-type protein kinases (Homo sapiens, UniProt Q9P1W9) (Q9P1W9 whole entry): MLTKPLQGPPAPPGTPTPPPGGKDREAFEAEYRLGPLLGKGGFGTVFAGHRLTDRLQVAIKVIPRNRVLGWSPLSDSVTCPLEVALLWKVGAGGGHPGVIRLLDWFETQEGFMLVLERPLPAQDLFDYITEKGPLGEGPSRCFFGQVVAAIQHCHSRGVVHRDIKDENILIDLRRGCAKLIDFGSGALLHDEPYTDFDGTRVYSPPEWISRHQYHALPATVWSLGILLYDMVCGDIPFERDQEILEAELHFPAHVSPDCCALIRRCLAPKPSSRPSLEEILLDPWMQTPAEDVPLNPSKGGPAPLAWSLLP
From the text: as §1

Sequence of 320 wild-type protein kinases (Homo sapiens, UniProt Q14680) (Q14680 whole entry): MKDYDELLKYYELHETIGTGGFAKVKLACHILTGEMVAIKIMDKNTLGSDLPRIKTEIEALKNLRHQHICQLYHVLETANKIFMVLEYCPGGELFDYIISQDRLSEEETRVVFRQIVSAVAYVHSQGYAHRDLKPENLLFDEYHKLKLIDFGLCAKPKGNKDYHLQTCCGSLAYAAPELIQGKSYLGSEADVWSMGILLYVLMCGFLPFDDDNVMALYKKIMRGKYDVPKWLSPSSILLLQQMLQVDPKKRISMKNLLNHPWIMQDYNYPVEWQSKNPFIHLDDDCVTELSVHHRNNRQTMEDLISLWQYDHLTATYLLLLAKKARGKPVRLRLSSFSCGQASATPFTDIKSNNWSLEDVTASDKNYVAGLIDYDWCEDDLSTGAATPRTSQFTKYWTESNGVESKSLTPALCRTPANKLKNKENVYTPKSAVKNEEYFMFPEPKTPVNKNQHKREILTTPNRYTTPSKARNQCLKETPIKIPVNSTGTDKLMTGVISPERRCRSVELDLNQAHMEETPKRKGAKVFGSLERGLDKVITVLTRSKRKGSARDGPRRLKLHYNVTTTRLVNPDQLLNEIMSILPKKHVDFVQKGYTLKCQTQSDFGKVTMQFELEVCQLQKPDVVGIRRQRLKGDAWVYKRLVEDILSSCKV

Regarding `C#Cc1cc(Nc2ncnc3cc(OC)c(OC)cc23)ccc1Cl` [Compound 45], the Residual activity in experiment [1] (GRK2, 1.0E-06 M) is listed as 111 % of control; in experiment [1] (GRK2, 1.0E-07 M), 96 % of control; in experiment [3] (1.0E-06 M) it was 101 % of control; in experiment [3] (1.0E-07 M) it was 109 % of control; in experiment [4] (1.0E-06 M), 113 % of control; in experiment [4] (1.0E-07 M), 114 % of control. In addition, the Residual activity in experiment [5] (HIPK4, 1.0E-06 M) was 57 % of control; in experiment [5] (HIPK4, 1.0E-07 M), 98 % of control; in experiment [6] (BRSK1, 1.0E-06 M), 97 % of control; in experiment [6] (BRSK1, 1.0E-07 M), 89 % of control; in experiment [7] (PIM2, 1.0E-06 M), 100 % of control; in experiment [7] (PIM2, 1.0E-07 M) it was 89 % of control. Further, the “Residual activity, PRKX” value in experiment [2] (assay conc. 1.0E-06 M) is 118 % of control; in experiment [2] (assay conc. 1.0E-07 M), 117 % of control.

Turning to `C#Cc1cc(Nc2ncnc3cc(I)ccc23)ccc1Cl` [Compound 41], the Residual activity in experiment [1] (GRK2, 1.0E-06 M) is reported as 117 % of control; in experiment [1] (GRK2, 1.0E-07 M) it was 104 % of control; in experiment [3] (1.0E-06 M), 92 % of control; in experiment [3] (1.0E-07 M), 101 % of control; in experiment [4] (1.0E-06 M), 141 % of control; in experiment [4] (1.0E-07 M), 140 % of control. The Residual activity in experiment [5] (HIPK4, 1.0E-06 M) is recorded as 97 % of control; in experiment [5] (HIPK4, 1.0E-07 M), 104 % of control; in experiment [6] (BRSK1, 1.0E-06 M), 91 % of control; in experiment [6] (BRSK1, 1.0E-07 M), 100 % of control; in experiment [7] (PIM2, 1.0E-06 M), 101 % of control; in experiment [7] (PIM2, 1.0E-07 M), 112 % of control. Also, the entries for the “Residual activity, PRKX” value in experiment [2] (assay conc. 1.0E-06 M) and in experiment [2] (assay conc. 1.0E-07 M) were 123 % of control and 138 % of control, respectively.
